Results published in patent US10335382B2, “Use of hydrogen sulfide synthesis inhibitors for cancer therapy” (THE BOARD OF REGENTS OF THE UNIVERSITY OF TEXAS SYSTEM, priority 2013, dated 2019).

Experiments:
NCM356 cells = assay: NCM356 non-malignant colonic epithelial cell proliferation (xCELLigence); format: cell-based, human; settings: AOAA 1 mM
Experimental: Cellular proliferation assays are conducted in HCT116 CRC cells in vitro, using the Roche XCelligence method. Concentration-response curves with the various AOAA analogs are prepared (concentration range: 1, 3, 10, 100, 300 and 600 μM). AOAA is used as the reference control, which, according to preliminary data, has an IC50 of approximately 300 μM. Control proliferation studies in the non-carcinogenic colonic epithelial cell line NCM356 are used to confirm cancer-cell selectivity. Since the NCM356 cells contain low levels of CBS, based on previous studies it is expect that AOAA (and its prodrugs) will only exert modest antiproliferative effects in these cells. Proliferation-inhibitory effects of the AOAA prodrugs in NCM356 cells indicate CBS-independent pharmacological actions. […]
Cellular migration and invasion assays were performed as described (Chao et al. (1996) Cancer Res. 56:4811-19). […] Migrated and invaded cells were then fixed in Carson's fixative, stained in 0.33% toluidine blue and quantified by visual counting. For the HCT116-EAhy926 co-culture experiment, the cancer cell line was grown to confluence in the bottom wells of the transwell chambers and then endothelial cell migration was assessed (Coletta et al. (2012) Proc Natl Acad Sci USA. 109:9161-66). […]

CBS = target: T1, CBS (Homo sapiens, UniProt P35520); assay: H2S production in colon cancer tissue extracts (methylene blue method); format: biochemical; set-up: from tissue; host or cells: human colorectal tumor tissue and patient-matched normal mucosa homogenates; settings: AOAA 1 mM; L-cysteine 3 mM, L-homocysteine 0.5 mM, 37° C., 30 min
T1 sequence (P35520 1-551): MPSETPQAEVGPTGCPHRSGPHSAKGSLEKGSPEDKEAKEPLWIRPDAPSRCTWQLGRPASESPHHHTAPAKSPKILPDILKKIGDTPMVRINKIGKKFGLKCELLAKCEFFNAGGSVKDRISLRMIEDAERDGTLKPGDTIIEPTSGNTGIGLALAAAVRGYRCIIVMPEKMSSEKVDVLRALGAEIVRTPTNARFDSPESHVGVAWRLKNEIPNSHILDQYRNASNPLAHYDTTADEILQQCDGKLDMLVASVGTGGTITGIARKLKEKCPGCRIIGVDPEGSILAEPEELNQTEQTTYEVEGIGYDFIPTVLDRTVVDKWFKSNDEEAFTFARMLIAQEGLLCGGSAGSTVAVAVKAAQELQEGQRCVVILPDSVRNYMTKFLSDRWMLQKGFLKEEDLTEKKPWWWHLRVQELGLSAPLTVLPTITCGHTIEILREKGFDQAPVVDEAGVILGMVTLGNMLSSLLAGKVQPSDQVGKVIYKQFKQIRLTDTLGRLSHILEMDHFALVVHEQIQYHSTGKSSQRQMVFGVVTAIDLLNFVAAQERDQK
Description: FIG. 1. CBS is overexpressed in human colorectal cancer. (A) Representative Western blot of CBS, CSE and 3-MST protein expression in human colorectal cancer specimens, paired with the corresponding normal mucosa tissues. PVDF membranes were probed with rabbit polyclonal antibodies against CBS, CSE and 3-MST. […] (C, D) CBS was highly expressed in three different colon cancer cell lines (LoVo, HCT116 and HT29); low expression was detected in the non-tumorigenic normal colon mucosa cells (NCM356) (arbitrary relative densitometric units were normalized with β-actin using image analysis software) (*p<0.05 vs NCM356 cells) (E) or in colon cancer cell lines (F) by the methylene blue method. H2S production was stimulated in tissue or cell lysates by incubation at 37° C. (30 min) in presence of the CBS substrates L-cysteine (3 mM) and L-homocysteine (0.5 mM). […] Western blots show representatives of at least n=3 experiments; H2S measurements represent mean±SEM of at least n=3 determinations.
H2S production can be measured in a tissue homogenate by using a methylene blue assay. Briefly, 1% zinc acetate is added to a tissue homogenate to trap H2S followed by 10% trichloroacetic acid to precipitate proteins. […] The absorbance of the resulting solution is measured at 655 nm. H2S content is calculated against a calibration curve of standard H2S solutions. […]

[1] = tested on: patient-derived colon cancer xenografts; assay: Patient-derived tumor xenograft (PDTX) growth; format: in vivo, nu/nu mice; settings: AOAA 9 mg/kg/day s.c.
Experimental: Nu/nu Balb/C female mice (8-10 weeks) were injected subcutaneously in the right and left dorsum (10^6 cells/side with HCT-116 cells). One week later, the mice were randomized and subcutaneous injections of phosphate buffered saline (PBS) or AOAA (9 mg/kg/day) were performed 6 days/week. Tumor diameters were measured transcutaneously using calipers and tumor volumes were calculated using the formula V=(π/6)hd^2. T-test comparisons of the tumor volumes and final weights at harvest were performed. Xenotrials with patient-derived xenografts (PTX) were performed on nu/nu mice implanted subcutaneously with a piece of Passage 2 tumor measuring 2-5 mm^3 each. When a small palpable tumor was evident at 7-10 days, the mice with tumor take were randomized and subjected to subcutaneous injection of vehicle or AOAA (9 mg/kg/day) 6 days/week. Specimens were fixed with 10% formalin and embedded in paraffin. 5 μm sections were stained with hematoxylin and eosin. Each in vivo experiment was repeated at least twice.

NOCC(=O)O [AOAA, aminooxyacetic acid]
NCM356 growth (NCM356 cells): did not affect | H2S-producing activity of CBS in tissue extracts (CBS): blocked the H2S-producing activity | PDTX growth, second patient with stage II disease and mutant Kras allele [1]: growth inhibitory effects | rate of PDTX growth, patient with stage III disease and Kras mutation [1]: reduced rate
